Test results taken from patent USRE49340E1, “Use of known compounds as D-amino acid oxidase inhibitors” (National Taiwan University, priority 2014, dated 2022).
Where “and” joins values, the source holds several entries; their conditions need not be identical. Equal values may be shown once. Entries after “also recorded” stand apart in the source; their conditions may differ. Where a name gives a salt, the structure may show the parent alone. Read-outs that look alike come from different tables or passages of the source. Each block holds one compound with its values, some of them ahead of it.

Experiments:
WT mice [1] = test: Prepulse inhibition (PPI) in WT mouse model; type: in vivo; conditions: 20 mg/kg i.p., 78 dB prepulse, vs saline controls, listed as RS-D7
Description: (§1) Taking advantage of wild-type (WT, healthy) mouse and pharmacologic animal models of schizophrenia, such as MK-801 and methamphetamine mouse model of schizophrenia, as the well-established animal models of schizophrenia, we investigate the therapeutic potential of RS-D7, a DAO inhibitor, on the alleviation of schizophrenia-related negative and cognitive deficits. A serial of behavioral tasks has been selected and conducted for mimicking the cognitive (e.g., prepulse inhibition) and negative symptoms (e.g., sucrose preference test and hot plate test) of schizophrenia in healthy control mice or pharmacological mouse model of schizophrenia (Lai, W. S et al., Current Pharmaceutical Design, 2014, 20(32), 5139-50). The pharmacological animal model of schizophrenia is due in part to similarities in clinical presentation and response to treatment. These behavioral tasks have been evaluated with varying degrees of test validities for assessing schizophrenia-relevant behavioral deficits in mice. Different batches of male adult C57/B16 mice were used and the details of different behavioral tasks were described elsewhere.
To assess schizophrenia-like cognitive function in mice, prepulse inhibition (PPI) was used to evaluate sensorimotor gating functions in mice after RS-D7 injection. […]

[2] = test system: C57/B16 mice with MK-801 injection; test: Sucrose preference test in MK-801 mouse model of schizophrenia; type: in vivo; conditions: mice given MK-801 0.2 mg/kg i.p., 20 mg/kg RS-D7
Description: as §1
(§2) MK-801 is a non-competitive NMDA receptor antagonist. An injection and chronic injections of MK-801 provide a potential animal model to mimic both the negative and cognitive symptoms of schizophrenia. […]

WT mice [3] = test: Hot plate test in WT mouse model; type: in vivo; conditions: 55° C. hot plate, 40 mg/kg i.p., vs WT controls, listed as RS-D7
Description: as §1
For schizophrenia-like negative symptoms in mice, hot plate test was used to assess basic pain and nociception function in mice. […]

porcine kidney DAAO = porcine kidney DAAO (Sus scrofa (Pig), UniProt P00371); test: DAAO enzymatic assay; type: biochemical
porcine kidney DAAO, sequence (P00371 whole entry): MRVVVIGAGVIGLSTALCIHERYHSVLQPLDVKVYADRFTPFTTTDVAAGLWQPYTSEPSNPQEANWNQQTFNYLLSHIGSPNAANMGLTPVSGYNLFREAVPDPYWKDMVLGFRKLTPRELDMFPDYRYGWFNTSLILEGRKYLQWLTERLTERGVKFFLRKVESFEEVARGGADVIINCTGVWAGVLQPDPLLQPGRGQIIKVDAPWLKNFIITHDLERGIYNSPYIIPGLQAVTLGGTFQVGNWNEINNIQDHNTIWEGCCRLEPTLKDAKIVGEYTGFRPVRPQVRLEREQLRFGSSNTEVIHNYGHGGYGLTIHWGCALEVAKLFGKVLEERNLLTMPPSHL
Procedure: The DAAO activity was measured by using substrate D-alanine reaction produced hydrogen peroxide (H2O2) to further react with 3-(4-hydroxyphenyl) propionic acid (HPPA). The HPPA were oxidized by H2O2 and peroxidase to become the fluorogenic dimer which was measured to represent the activity of DAAO. The substrate of DAAO was prepared in 50 mM D-alanine (dissolved in 0.2 M Tris-HCl buffer, pH 8.3). […] A 10 ul of D-alanine and drug mixture was incubated with 220 ul of Reaction Master Mix in black 96 well plate at 37° C. for 5 min. The Reaction Master Mix contained 110 ul of 5 U/mL porcine kidney DAAO (Sigma-Aldrich, USA) solution (dissolved with 0.2 M Tris-HCl buffer, pH 8.3), 1.1 mL of 15 U/mL peroxidase solution (dissolved with 0.2 M Tris-HCl buffer, pH 8.3), 1.1 mL of 20 mM HPPA solution (dissolved with 0.2 M Tris-HCl buffer, pH 8.3), and 2.2 ml of 2 M Tris-HCl buffer (pH 8.3) for 110 reaction assays.
The higher is the DAAO enzymatic activity, the higher is the fluorescence intensity. The fluorometric inhibition indicator (Fi) was obtained from the following equation: Fi=(Fs−FDrug)/(FDMSO). Where the fluorescent drug blank (FDrug) were measured in the drug mixture solution (using 0.2 M Tris HCl buffer, pH 8.3, without D-alanine). A DMSO blank (FDMSO) was measured under a 100% DMSO solution. Although, in the assay for D-amino acid oxidase, FAD was generally included in the reaction mixture because this co-factor is easily dissociated from the holoenzyme, the present method was performed without FAD. […] The IC50 value was calculated by GraphPad Prism, version 5 software (GraphPad Software, Inc., La Jolla, Calif.) (GraphPad Prism 5, GraphPad software Inc: California, USA) through nonlinear regression model.

[4] = test system: C57/B16 mice with MK-801 injection; test: Hot plate test in MK-801 mouse model of schizophrenia; type: in vivo; conditions: mice given MK-801 0.2 mg/kg i.p.; listed as RS-D7
Description: as §1, §2

[5] = test system: C57/B16 mice with MK-801 injection; test: Prepulse inhibition in MK-801 mouse model of schizophrenia; type: in vivo; conditions: mice given MK-801 0.2 mg/kg i.p., 40 mg/kg RS-D7
Description: as §1, §2

[6] = test system: ICR mice with methamphetamine injection; test: Prepulse inhibition in methamphetamine mouse model of schizophrenia; type: in vivo; conditions: ICR mice with methamphetamine 3 mg/kg i.p., 20 mg/kg i.p., especially 74 dB prepulse, vs DMSO and CBIO controls; listed as RS-D7
Description: Methamphetamine is a potent psychostimulant that increases the amount of extracellular dopamine in the brain. Methamphetamine (or amphetamine)-induced psychosis model has been well-established and useful for schizophrenia in laboratory animals.

[7] = porcine kidney DAAO, D-alanine substrate, HPPA fluorescence, pH 8.3, 37° C.

IC50 (porcine kidney DAAO; [7]): 1.19 µM and 1 to 10 µM
SMILES: COc1c(C)cnc(C[S+]([O-])c2nc3cc(O)ccc3[nH]2)c1C (stereo not shown) [5-O-Desmethyl-Omeprazole]
prepulse inhibition (sensorimotor gating function) (WT mice [1]): increases; also recorded: induced a greater PPI
sucrose uptake in sucrose preference test (anhedonia) [2]: alleviates; also recorded: rescued the MK-801 induced deficit
latency of mouse first reaction (jump) on hot plate (WT mice [3]): increases nociception function; also recorded: accelerated
numbers of jump on hot plate (WT mice [3]): increases nociception function; also recorded: increased
latency in hot plate test [4]: alleviates; also recorded: alleviated the MK-801-induced alteration
reaction numbers in hot plate test [4]: alleviates; also recorded: alleviated the MK-801-induced alteration
acoustic prepulse inhibition [5]: alleviates; also recorded: significantly alleviated MK-801 induced PPI deficit
prepulse inhibition (sensorimotor gating function) [6]: alleviates sensorimotor gating deficit; also recorded: induce a greater PPI

IC50 (porcine kidney DAAO; [7]): 97.6 µM
SMILES: CCN(CC)Cc1cc(Nc2ccnc3cc(Cl)ccc23)ccc1O [Amodiaquin, reference compound]

SMILES: CNCC[C@H](Oc1cccc2ccccc12)c1cccs1 [Duloxetine, reference compound]
IC50 (porcine kidney DAAO): 5.47 µM

IC50 (porcine kidney DAAO; [7]): 106 µM
SMILES: COc1ccc2nc([S@@+]([O-])Cc3ncc(C)c(OC)c3C)[nH]c2c1 [Esomeprazole, reference compound]

IC50 (porcine kidney DAAO; [7]): 102 µM
SMILES: Clc1ccc2c(c1)N=C(N1CCNCC1)c1ccccc1N2 [N-Desmethylclozapine]

SMILES: COc1ccc(OC[C@@H]2CNCC[C@H]2c2ccc(F)cc2)cc1O [PM-BRL 36583A, (−)-trans 4-(4-Fluorophenyl)-3-(3-hydroxy-4-methoxyphenoxymethyl) piperidine]
IC50 (porcine kidney DAAO; [7]): 3.67 µM

SMILES: COc1cc(OC[C@@H]2CNCC[C@H]2c2ccc(F)cc2)ccc1O [PM-BRL 36610A, (−)trans 4-(4-fluorophenyl)-3-(4-hydroxy-3-methoxyphenoxymethyl)piperidine-hydrochloride]
IC50 (porcine kidney DAAO; [7]): 3.45 µM

SMILES: O=C([O-])c1ccccc1.[Na+] [sodium benzoate, reference compound]
IC50 (porcine kidney DAAO): ~71.7 µM
